Data set [1] can be described thus: Headspace Method, Air/IPM partition (dynamic headspace GC/MS). It counts as physicochemical. The conditions noted are these: for Air/IPM partition coef / Headspace: 30° C.; for Headspace: above IPM solution of about 2.1E+06 ng/mL. As to the method: (§1) Perfume headspace data is collected for various materials according to the method provided below.
(§2) The partition coefficients are calculated by determining the amount of PRM in the headspace above a solution with a known concentration using a GC/FID-MS (Agilent 7890 and 5977A MSD) with a thermal desorption unit (Gerstel MPS2) and Dynamic Headspace Sampler (Gerstel DHS). This technique allows for automated headspace collections using the MultiPurposeSampler (MPS). The PRMs of interest are prepared at a known concentration in isopropyl myristate (IPM) or propylene glycol monomethyl ether (DPM), and 1 mL is pipetted in a 20 mL headspace vial.
(§3) DHS Conditions: The sample is tempered in the unit at 30° C. A helium stream at 10 mls/min purges 20 mL of headspace containing the analytes above the sample onto the sorbent tube (TDU) containing 25 mg of TenaxTA 35/60 (Restek cat # 25701).
(§4) TDU conditions: The sorbent tube is desorbed with a program starting at 30° C. solvent vent for 2 min then ramped at 720° C./min to 270 ° C. and held for 8 min. The analytes are refocused on a glass bead liner at -60° C. then desorbed at a rate of 12 ° C./s to 270° C. onto the GC column.
(§5) GC/MS conditions: Agilent 122-5532UI column of 30 m×250 μm×0.25 μm and a flow rate of 1.5 mL/min is utilized. A temperature program of 50° C. to 280° C. with a 2 min hold and a ramp rate of 12° C./min is suitable. Scan or SIM mode MSD parameters with a solvent delay for the DPM are applied to achieve appropriate detection.
(§6) Analytical standards can be obtained from Sigma Aldrich, St. Louis, MO and BioSynth, UK. A stock solution is prepared at approximately 0.5 g/L. The stock solution is then diluted to 4 to 5 concentrations ranging from approximately 0.05 g/L to 0.00005 g/L. These standard solutions are then analyzed by GC/MS. This analysis is performed by using the same TDU desorption and GC/MS conditions described above with a luL liquid injection onto the TDU tube instead of the DHS collection. The amount injected on column and the area responses of the target m/z are utilized to create a calibration plot with a linear fit.
(§7) Quantification of the headspace is performed by the PRM target m/z area response of the perfume component and the linear equation of the calibration plot.
(§8) Perfume headspace data is collected for various materials according to the Headspace 5 Method provided above in the Test Methods section. The Air/Solvent partition coefficients are determined and indexed accordingly (e.g., where the partition coefficient for ethylvanillin is set at 1.00).

A short description of the next data set: physchem. The conditions noted are these: oil or lipid, thermodynamic from solid.
Data set [2] in a line: Headspace Method, Air/DPM partition (dynamic headspace GC/MS). It counts as physicochemical. The following applies: for Air/DPM partition coef / Headspace: 30° C.; for Headspace: above DPM solution of 1.1E+07 ng/mL. How it is done: as §1, §2, §3, §4, §5, §6, §7, §8

Values after ≈ are worked out from the molar mass of the structure shown. Read-outs that look alike come from different tables or passages of the source.

On to `CCOc1cc(C=O)ccc1O` [Ethylvanillin], for which, in data set [1] (average of two replicates), the Air/IPM partition coef is 1.95E−08 ng/mL in air per ng/mL in IPM and the Headspace was 0.0402 ng/mL. Also, the “Ethylvanillin Indexed Air/IPM partition coefficient” value in data set [1] (indexed, ethylvanillin set at 1.00, average of two replicates) amounted to 1.00. This molecule also displayed a solubility in the data set “physchem” of 38 mg/mL (≈ 229 mM). In data set [2] (average of three replicates), the Air/DPM partition coef was 2.45E−09 ng/mL in air per ng/mL in DPM and the Headspace worked out at 0.0262 ng/mL. For the same molecule, the “Ethylvanillin Indexed Air/DPM partition coefficient” value in data set [2] (indexed, ethylvanillin set at 1.00, average of three replicates) came out at 1.00.

In the case of `COc1cc(C=O)ccc1O` [Vanillin], the “Ethylvanillin Indexed Air/IPM partition coefficient” value in data set [1] is 1.40. For the same molecule, in data set [1] (average of two replicates), the Air/IPM partition coef is 2.73E−08 ng/mL in air per ng/mL in IPM and the Headspace was determined as 0.0563 ng/mL. Moreover, in data set [2], the “Ethylvanillin Indexed Air/DPM partition coefficient” value was 4.88. In data set [2] (average of three replicates), the Air/DPM partition coef is 1.21E−08 ng/mL in air per ng/mL in DPM and the Headspace was found to be 0.1288 ng/mL.

As for `CCOc1cccc(C=O)c1O` [ortho-Ethylvanillin, 2-hydroxy-3-ethoxybenzaldehyde], the “Ethylvanillin Indexed Air/IPM partition coefficient” value in data set [1] was found to be 6.17. In data set [1] (average of two replicates), the Air/IPM partition coef is given as 1.21E−07 ng/mL in air per ng/mL in IPM and the Headspace is listed as 0.2521 ng/mL. The “goes into the headspace more than its structural isomer ethylvanillin” value in data set [1] (out of IPM) is reported as “about 6.2 X”. Also, the concentration in solution in the data set “physchem” (solubility) was 73 mg/mL (≈ 439 mM). Also, in data set [2], the “Ethylvanillin Indexed Air/DPM partition coefficient” value was 93.7. In data set [2] (average of three replicates), the Air/DPM partition coef is listed as 2.31E−07 ng/mL in air per ng/mL in DPM and the Headspace is reported as 2.4678 ng/mL. Moreover, in data set [2] (out of DPM), the “goes into the headspace more than ethylvanillin” value was “about 94 X”.

As usually defined, the solubility is how much of the substance goes into solution per volume. Lower therefore signals little dissolved substance.

Values taken from US20240199977A1, “COMPOSITIONS COMPRISING A META-(C1-C4 ALKOXY) […]” (The Procter & Gamble Company, priority 2022, published 2024).
